Results published in patent US8716297B2, “Chemical entities to be used for Wee1 inhibition for the treatment of cancer” (AbbVie Inc., priority 2011, dated 2014).

Each molecule was assayed against T1, GST-tagged-Wee1 kinase (Homo sapiens, UniProt P30291) (assay: Wee1 time-resolved fluorescence equilibrium binding assay (displacement of Oregon Green-labeled ATP-competitive probe)). Settings: TR-FRET probe displacement; 2 nM GST-Wee1, 300 nM probe, 1 hour incubation; read-out: Wee-1 binding (Ki nM).
T1 construct: purchased Carnabio 05-177
T1 sequence (P30291 whole entry): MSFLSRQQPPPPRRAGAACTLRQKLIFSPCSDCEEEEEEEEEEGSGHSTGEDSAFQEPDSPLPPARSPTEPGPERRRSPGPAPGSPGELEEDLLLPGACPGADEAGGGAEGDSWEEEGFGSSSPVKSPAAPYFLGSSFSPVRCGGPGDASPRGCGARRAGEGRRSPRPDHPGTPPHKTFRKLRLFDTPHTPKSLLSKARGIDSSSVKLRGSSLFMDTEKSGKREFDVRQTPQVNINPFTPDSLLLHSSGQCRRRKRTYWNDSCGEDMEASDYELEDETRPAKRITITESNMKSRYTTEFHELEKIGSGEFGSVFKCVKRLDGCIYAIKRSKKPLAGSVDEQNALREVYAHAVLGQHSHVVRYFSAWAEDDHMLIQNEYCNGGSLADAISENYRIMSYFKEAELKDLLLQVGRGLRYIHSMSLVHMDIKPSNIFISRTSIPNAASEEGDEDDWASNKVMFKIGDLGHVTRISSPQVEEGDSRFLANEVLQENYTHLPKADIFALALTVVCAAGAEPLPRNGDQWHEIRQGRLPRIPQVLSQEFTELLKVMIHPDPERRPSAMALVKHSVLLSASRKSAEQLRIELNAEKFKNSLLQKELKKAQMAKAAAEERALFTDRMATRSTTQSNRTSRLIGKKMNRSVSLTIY
Protocol: Wee1 kinase was assayed using a time-resolved fluorescence equilibrium binding assay monitoring displacement of a rapidly reversible Oregon Green-labeled ATP-competitive kinase probe (N-(2-(2-(2-(4-(4-(5-chloro-4-(2-(1-hydroxycyclobutyl)thiazol-5-yl)-1H-pyrrolo[2,3-b]pyridin-2-yl)phenyl)piperazin-1-yl)ethoxy)ethoxy)ethyl)-2′,7′-difluoro-3′,6′-dihydroxy-3-oxo-3H-spiro[isobenzofuran-1,9′-xanthene]-5-carboxamide) by competitive Wee1 inhibitors.

Row | Structure (SMILES) | Ki [nM]
1 | C=CCN1c2ncccc2-c2nc(Nc3ccc(OCCN(CC)CC)cc3)ncc2S1(=O)=O [Example 39, 6-allyl-N-{4-[2-(diethylamino)ethoxy]phenyl}-6H-pyrido[2,3-c]pyrimido[4,5-e][1,2]thiazin-2-amine 5,5-dioxide] | 15
2 | C=CCN1c2ncccc2-c2nc(Nc3ccc(N4CCN(C)CC4)cc3)ncc2S1(=O)=O [Example 40, 6-allyl-N-[4-(4-methylpiperazin-1-yl)phenyl]-6H-pyrido[2,3-c]pyrimido[4,5-e][1,2]thiazin-2-amine 5,5-dioxide] | 5
3 | C=CCN1c2ncccc2-c2nc(Nc3ccc(N4CCN(C)CC4)c(Cl)c3)ncc2S1(=O)=O [Example 41, 6-allyl-N-[3-chloro-4-(4-methylpiperazin-1-yl)phenyl]-6H-pyrido[2,3-c]pyrimido[4,5-e][1,2]thiazin-2-amine 5,5-dioxide] | 2370
4 | C=CCN1c2ncccc2-c2nc(Nc3ccc(N4CCNCC4)c(C)c3)ncc2S1(=O)=O [Example 42, 6-allyl-N-[3-methyl-4-(piperazin-1-yl)phenyl]-6H-pyrido[2,3-c]pyrimido[4,5-e][1,2]thiazin-2-amine 5,5-dioxide] | 2
5 | C=CCN1c2ncccc2-c2nc(Nc3ccc(C(=O)N4CCN(C)CC4)cc3)ncc2S1(=O)=O [Example 43, {4-[(6-allyl-5,5-dioxido-6H-pyrido[2,3-c]pyrimido[4,5-e][1,2]thiazin-2-yl)amino]phenyl}(4-methylpiperazin-1-yl)methanone] | 56
6 | C=CCN1c2ncccc2-c2nc(Nc3ccc(N4CCN(C)CC4)cc3C)ncc2S1(=O)=O [Example 44, 6-allyl-N-[2-methyl-4-(4-methylpiperazin-1-yl)phenyl]-6H-pyrido[2,3-c]pyrimido[4,5-e][1,2]thiazin-2-amine 5,5-dioxide] | 487
7 | C=CCN1c2ncccc2-c2nc(Nc3ccc(C4CCNC4)cc3)ncc2S1(=O)=O (centres unmarked) [Example 45, 6-allyl-N-[4-(pyrrolidin-3-yl)phenyl]-6H-pyrido[2,3-c]pyrimido[4,5-e][1,2]thiazin-2-amine 5,5-dioxide] | 3
8 | C=CCN1c2ncccc2-c2nc(Nc3ccc4c(c3)CCNC4)ncc2S1(=O)=O [Example 46, 6-allyl-N-(1,2,3,4-tetrahydroisoquinolin-6-yl)-6H-pyrido[2,3-c]pyrimido[4,5-e][1,2]thiazin-2-amine 5,5-dioxide] | 2
9 | C=CCN1c2ncccc2-c2nc(Nc3ccc4c(c3)CN(C)CC43CC3)ncc2S1(=O)=O [Example 47, 6-allyl-N-(2′-methyl-2′,3′-dihydro-1′H-spiro[cyclopropane-1,4′-isoquinolin]-7′-yl)-6H-pyrido[2,3-c]pyrimido[4,5-e][1,2]thiazin-2-amine 5,5-dioxide] | 1.3
10 | C=CCN1c2ncccc2-c2nc(Nc3ccc(N4CCN5CCCC5C4)cc3)ncc2S1(=O)=O (centres unmarked) [Example 48, 6-allyl-N-[4-(hexahydropyrrolo[1,2-a]pyrazin-2(1H)-yl)phenyl]-6H-pyrido[2,3-c]pyrimido[4,5-e][1,2]thiazin-2-amine 5,5-dioxide] | 2
11 | C=CCN1c2ncccc2-c2nc(Nc3ccc4c(c3)N(C)CCC4)ncc2S1(=O)=O [Example 49, 6-allyl-N-(1-methyl-1,2,3,4-tetrahydroquinolin-7-yl)-6H-pyrido[2,3-c]pyrimido[4,5-e][1,2]thiazin-2-amine 5,5-dioxide] | 45
12 | C=CCN1c2ncccc2-c2nc(Nc3ccc(N4CCN(C)CC4)c(C)c3)ncc2S1(=O)=O [Example 50, 6-allyl-N-[3-methyl-4-(4-methylpiperazin-1-yl)phenyl]-6H-pyrido[2,3-c]pyrimido[4,5-e][1,2]thiazin-2-amine 5,5-dioxide] | 5
13 | C=CCN1c2ncccc2-c2nc(Nc3ccc(N4CCNCC4)c(C(F)(F)F)c3)ncc2S1(=O)=O [Example 51, 6-allyl-N-[4-(piperazin-1-yl)-3-(trifluoromethyl)phenyl]-6H-pyrido[2,3-c]pyrimido[4,5-e][1,2]thiazin-2-amine 5,5-dioxide] | 14
14 | C=CCN1c2ncccc2-c2nc(Nc3ccc(N4CCOCC4)cc3)ncc2S1(=O)=O [Example 52, 6-allyl-N-[4-(morpholin-4-yl)phenyl]-6H-pyrido[2,3-c]pyrimido[4,5-e][1,2]thiazin-2-amine 5,5-dioxide] | 12
15 | C=CCN1c2ncccc2-c2nc(Nc3ccc(N4CCCN(C)CC4)c(C)c3)ncc2S1(=O)=O [Example 53, 6-allyl-N-[3-methyl-4-(4-methyl-1,4-diazepan-1-yl)phenyl]-6H-pyrido[2,3-c]pyrimido[4,5-e][1,2]thiazin-2-amine 5,5-dioxide] | 1.1
16 | C=CCN1c2ncccc2-c2nc(Nc3ccc4c(c3)CNCC43CC3)ncc2S1(=O)=O [Example 54, 6-allyl-N-(2′,3′-dihydro-1′H-spiro[cyclopropane-1,4′-isoquinolin]-7′-yl)-6H-pyrido[2,3-c]pyrimido[4,5-e][1,2]thiazin-2-amine 5,5-dioxide] | 1.2

Row | Structure (SMILES) | Ki [nM]
17 | CN1CCN(c2ccc(Nc3ncc4c(n3)-c3sccc3N(C)S4(=O)=O)cc2)CC1 [Example 55, 6-methyl-N-[4-(4-methylpiperazin-1-yl)phenyl]-6H-pyrimido[4,5-e]thieno[3,2-c][1,2]thiazin-2-amine 5,5-dioxide] | 8
18 | CN1CCN(c2ccc(Nc3ncc4c(n3)-c3ccccc3N(C)S4(=O)=O)cc2)CC1 [Example 56, 6-methyl-N-[4-(4-methylpiperazin-1-yl)phenyl]-6H-pyrimido[5,4-c][2,1]benzothiazin-2-amine 5,5-dioxide] | 9
19 | CN1c2ccccc2-c2nc(Nc3ccc(N4CCOCC4)cc3)ncc2S1(=O)=O [Example 57, 6-methyl-N-[4-(morpholin-4-yl)phenyl]-6H-pyrimido[5,4-c][2,1]benzothiazin-2-amine 5,5-dioxide] | 12
20 | CN1c2ccccc2-c2nc(Nc3ccc(CN4CCCC4)cc3)ncc2S1(=O)=O [Example 58, 6-methyl-N-[4-(pyrrolidin-1-ylmethyl)phenyl]-6H-pyrimido[5,4-c][2,1]benzothiazin-2-amine 5,5-dioxide] | 11
21 | C=CCN1c2c(C(=O)O)cccc2-c2nc(Nc3ccc(N4CCN(C)CC4)cc3)ncc2S1(=O)=O [Example 59, 6-allyl-2-{[4-(4-methylpiperazin-1-yl)phenyl]amino}-6H-pyrimido[5,4-c][2,1]benzothiazine-7-carboxylic acid 5,5-dioxide] | 141
22 | C=CCN1c2c(C(=O)OC)cccc2-c2nc(Nc3ccc(N4CCN(C)CC4)cc3)ncc2S1(=O)=O [Example 60, methyl 6-allyl-2-{[4-(4-methylpiperazin-1-yl)phenyl]amino}-6H-pyrimido[5,4-c][2,1]benzothiazine-7-carboxylate 5,5-dioxide] | 9
23 | C=CCN1c2c(C(=O)NC)cccc2-c2nc(Nc3ccc(N4CCN(C)CC4)cc3)ncc2S1(=O)=O [Example 61, 6-allyl-N-methyl-2-{[4-(4-methylpiperazin-1-yl)phenyl]amino}-6H-pyrimido[5,4-c][2,1]benzothiazine-7-carboxamide 5,5-dioxide] | 11
24 | C=CCN1c2c(C(=O)NCCO)cccc2-c2nc(Nc3ccc(N4CCN(C)CC4)cc3)ncc2S1(=O)=O [Example 62, 6-allyl-N-(2-hydroxyethyl)-2-{[4-(4-methylpiperazin-1-yl)phenyl]amino}-6H-pyrimido[5,4-c][2,1]benzothiazine-7-carboxamide 5,5-dioxide] | 37
25 | C=CCN1c2cc(Br)ccc2-c2nc(Nc3ccc(N4CCN(C)CC4)cc3)ncc2S1(=O)=O [Example 64, 6-allyl-8-bromo-N-[4-(4-methylpiperazin-1-yl)phenyl]-6H-pyrimido[5,4-c][2,1]benzothiazin-2-amine 5,5-dioxide] | 2
26 | COC(=O)c1ccc2c(c1)NS(=O)(=O)c1cnc(Nc3ccc(N4CCN(C)CC4)cc3)nc1-2 [Example 65, methyl 2-{[4-(4-methylpiperazin-1-yl)phenyl]amino}-6H-pyrimido[5,4-c][2,1]benzothiazine-8-carboxylate 5,5-dioxide] | 256
27 | CCCN1c2cc(Br)ccc2-c2nc(Nc3ccc(N4CCN(C)CC4)cc3)ncc2S1(=O)=O [Example 66, 8-bromo-N-[4-(4-methylpiperazin-1-yl)phenyl]-6-propyl-6H-pyrimido[5,4-c][2,1]benzothiazin-2-amine 5,5-dioxide] | 6
28 | CCCN1c2ccccc2-c2nc(Nc3ccc(N4CCN(C)CC4)cc3)ncc2S1(=O)=O [Example 67, N-[4-(4-methylpiperazin-1-yl)phenyl]-6-propyl-6H-pyrimido[5,4-c][2,1]benzothiazin-2-amine 5,5-dioxide] | 4
29 | CCCN1c2cc(-c3ccccc3)ccc2-c2nc(Nc3ccc(N4CCN(C)CC4)cc3)ncc2S1(=O)=O [Example 68, N-[4-(4-methylpiperazin-1-yl)phenyl]-8-phenyl-6-propyl-6H-pyrimido[5,4-c][2,1]benzothiazin-2-amine 5,5-dioxide] | 92
30 | CCCN1c2cc(-c3cccnc3)ccc2-c2nc(Nc3ccc(N4CCN(C)CC4)cc3)ncc2S1(=O)=O [Example 69, N-[4-(4-methylpiperazin-1-yl)phenyl]-6-propyl-8-(pyridin-3-yl)-6H-pyrimido[5,4-c][2,1]benzothiazin-2-amine 5,5-dioxide] | 4
31 | CCCN1c2cc(-c3cn[nH]c3)ccc2-c2nc(Nc3ccc(N4CCN(C)CC4)cc3)ncc2S1(=O)=O [Example 70, N-[4-(4-methylpiperazin-1-yl)phenyl]-6-propyl-8-(1H-pyrazol-4-yl)-6H-pyrimido[5,4-c][2,1]benzothiazin-2-amine 5,5-dioxide] | 5
32 | CCCN1c2cc(-c3ccc(C(N)=O)cc3)ccc2-c2nc(Nc3ccc(N4CCN(C)CC4)cc3)ncc2S1(=O)=O [Example 71, 4-(2-{[4-(4-methylpiperazin-1-yl)phenyl]amino}-5,5-dioxido-6-propyl-6H-pyrimido[5,4-c][2,1]benzothiazin-8-yl)benzamide] | 4
